Converted amounts (≈) assume the structure as drawn.
Columns and labels:
[1] = In vitro metabolism in mouse liver microsomes; conditions: for half-life: mouse, microsomes
Procedure: (§1) The target product profile seeks to deliver JNK inhibitor as a once daily oral administration. To prioritize compounds for further development, in vitro metabolism of several CDD JNK inhibitors were determined to approximate the plasma half-life and the rate of metabolism of the compounds in vivo.

[2] = In vitro metabolism in human liver microsomes; conditions: for half-life: human, microsomes
Procedure: as §1

JNK1 [3] = biological target: T1, JNK1 (Homo sapiens, UniProt P45983); experiment: JNK1 kinase (intrinsic ATPase, Kinase-Glo) assay; format: biochemical
T1 sequence (P45983 whole entry): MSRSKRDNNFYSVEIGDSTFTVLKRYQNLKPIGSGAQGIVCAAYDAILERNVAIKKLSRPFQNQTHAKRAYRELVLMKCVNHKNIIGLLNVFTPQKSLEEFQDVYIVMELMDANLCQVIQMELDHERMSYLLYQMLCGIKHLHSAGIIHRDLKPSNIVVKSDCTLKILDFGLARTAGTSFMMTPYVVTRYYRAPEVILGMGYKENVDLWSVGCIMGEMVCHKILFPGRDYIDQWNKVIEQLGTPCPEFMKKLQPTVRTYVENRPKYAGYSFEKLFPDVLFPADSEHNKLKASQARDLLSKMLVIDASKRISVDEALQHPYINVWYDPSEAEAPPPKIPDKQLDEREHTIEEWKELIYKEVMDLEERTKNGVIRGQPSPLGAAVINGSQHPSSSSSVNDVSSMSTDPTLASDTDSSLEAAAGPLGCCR
Procedure: JNK1, JNK2, and JNK3 hydrolyze ATP to ADP without any peptide substrates. This allows a very robust and fast endpoint assay where the remaining concentration of ATP is measured (BMG ClarioStar Plus plate reader) using the Kinase-Glo Assay kit from Promega (V6711). A luminescence signal is measured, which is produced by the catalytic conversion of beetle luciferin to oxyluciferin by luciferase. Potential inhibition of luciferase (i.e., false negatives) is easily detected, because assays without kinase are always included, and less ATP than is present in this control reaction could also indicate an inhibition of luciferase, which can be excluded by a counter screen with only luciferase.
To mitigate violation of the linear initial velocity principle, which is a problem in end-point assays when doing dose-responses, the enzyme concentration was carefully optimized, in a total assay volume of 25 μL. […] The kinase reaction was done for 30 or 60 min at 30° C., and detection of leftover ATP was measured according to Promega's protocol. […] Fractional activities were obtained from normalized data. Non-linear regression (GraphPad Prism7) and a modified Morrison equation for tight binding was used to determine apparent Ki values for inhibitors, assuming no particular mode of inhibition. An orthogonal binding assay (LanthaScreen) was outsourced to ThermoFisher Scientific's SelectScreen Services to determine IC50 values.

JNK2 [4] = biological target: T2, JNK2 (Homo sapiens, UniProt P45984); experiment: Promega NanoBRET intracellular target engagement (tracer K10 displacement), JNK2; format: cell-based
T2 sequence (P45984 whole entry): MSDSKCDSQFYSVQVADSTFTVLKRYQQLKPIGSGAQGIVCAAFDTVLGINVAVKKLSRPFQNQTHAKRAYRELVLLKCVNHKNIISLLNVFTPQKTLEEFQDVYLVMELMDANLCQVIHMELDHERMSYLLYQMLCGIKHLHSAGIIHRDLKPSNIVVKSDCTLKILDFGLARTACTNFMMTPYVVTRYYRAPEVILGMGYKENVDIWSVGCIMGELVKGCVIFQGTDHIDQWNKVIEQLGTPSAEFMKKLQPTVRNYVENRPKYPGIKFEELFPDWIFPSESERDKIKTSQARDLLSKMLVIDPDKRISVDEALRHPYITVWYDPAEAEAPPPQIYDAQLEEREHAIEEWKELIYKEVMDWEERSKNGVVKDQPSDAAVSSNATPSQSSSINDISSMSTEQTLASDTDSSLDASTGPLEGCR

JNK1 [5] = biological target: T1, JNK1; experiment: Promega NanoBRET intracellular target engagement (tracer K10 displacement), JNK1; format: cell-based
JNK2 [6] = biological target: T2, JNK2; experiment: JNK2 kinase (intrinsic ATPase, Kinase-Glo) assay; format: biochemical; conditions: for Kd: Table 3a, read-out: Kd JNK2
JNK3 = JNK3 (Homo sapiens, UniProt P53779); experiment: JNK3 kinase (intrinsic ATPase, Kinase-Glo) assay; format: biochemical; conditions: for Kd: Table 3a, read-out: Kd JNK3
Sequence of JNK3 (P53779 whole entry): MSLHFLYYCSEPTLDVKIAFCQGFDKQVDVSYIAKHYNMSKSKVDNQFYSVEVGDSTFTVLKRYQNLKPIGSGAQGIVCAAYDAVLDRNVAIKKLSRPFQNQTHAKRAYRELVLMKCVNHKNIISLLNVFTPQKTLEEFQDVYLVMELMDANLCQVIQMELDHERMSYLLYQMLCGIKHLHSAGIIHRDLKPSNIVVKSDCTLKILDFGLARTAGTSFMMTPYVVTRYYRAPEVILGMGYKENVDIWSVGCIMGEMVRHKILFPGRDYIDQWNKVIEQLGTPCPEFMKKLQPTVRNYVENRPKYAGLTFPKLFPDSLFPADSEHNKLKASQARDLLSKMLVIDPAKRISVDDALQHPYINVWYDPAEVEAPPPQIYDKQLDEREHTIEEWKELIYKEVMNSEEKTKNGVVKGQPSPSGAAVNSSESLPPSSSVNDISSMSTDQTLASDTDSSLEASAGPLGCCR

Cc1nnc2n1-c1ccc(Cl)cc1C(c1ccccc1)=NC2 [Alprazolam, reference compound]
Predicted half-life, MLM t1/2 [1]: 3.975 h
Predicted half-life, HLM t1/2 [2]: 12.63 h

CNC(=O)CN1[C@H](CC(=O)NCCCN(C)c2ccc(F)cc2)CNC[C@H]1C [CDD-2272, N-(3-((4-fluorophenyl)(methyl)amino)propyl)-2-((2R,6R)-6-methyl-1-(2-(methylamino)-2-oxoethyl)piperazin-2-yl)acetamide]
Ki (JNK1 [3]; Table 3b, read-out: Ki(app) JNK1): 860 nM
IC50 (JNK2 [4]): 58000 nM
IC50 (JNK1 [5]): 60000 nM

CNC(=O)c1ccc(NC(=O)c2ccn3ncc(-c4cnc5[nH]ccc5c4)c3c2)cc1 [CDD-2461, N-(4-(methylcarbamoyl)phenyl)-3-(1H-pyrrolo[2,3-b]pyridin-5-yl)pyrazolo[1,5-a]pyridine-5-carboxamide]
Kd (JNK2 [6]): 0.32 ± 0.12 nM
half-life [1]: 0.513 h
half-life [2]: 1.19 h
Kd (JNK1 [3]): 0.2 ± 0.18 nM
Kd (JNK3): 0.33 ± 0.03 nM
IC50 (JNK2 [4]): 5300 nM
IC50 (JNK1 [5]): 49500 nM
solubility (Solubility): 1.8 µM (≈ 0.739 µg/mL)

O=C(Nc1ccc(C(F)(F)F)cc1)c1ccn2ncc(-c3cnc4[nH]ccc4c3)c2c1 [CDD-2483, 3-(1H-pyrrolo[2,3-b]pyridin-5-yl)-N-(4-(trifluoromethyl)phenyl)pyrazolo[1,5-a]pyridine-5-carboxamide]
Ki (JNK2 [6]): 339 nM
Ki (JNK3): 167 nM
solubility (Solubility): 0.6 µM (≈ 0.253 µg/mL)

O=C(Nc1ccccc1)c1ccn2ncc(-c3cnc4[nH]ccc4c3)c2c1 [CDD-2485, N-phenyl-3-(1H-pyrrolo[2,3-b]pyridin-5-yl)pyrazolo[1,5-a]pyridine-5-carboxamide]
Kd (JNK2 [6]): 0.95 ± 0.16 nM
Kd (JNK1 [3]): 0.12 ± 0.09 nM
Kd (JNK3): 0.73 ± 0.02 nM

COc1ccc(NC(=O)c2cc3c(-c4cnc5[nH]ccc5c4)cccc3s2)cc1 [CDD-2629, N-(4-methoxyphenyl)-4-(1H-pyrrolo[2,3-b]pyridin-5-yl)benzo[b]thiophene-2-carboxamide]
Kd (JNK2 [6]): 15.4 ± 1.4 nM
Kd (JNK1 [3]): 7.8 ± 1.4 nM
Kd (JNK3): 9.9 ± 1.3 nM

O=C(Nc1ccccc1)c1cc2c(-c3cnc4[nH]ccc4c3)cccc2s1 [CDD-2631, N-phenyl-4-(1H-pyrrolo[2,3-b]pyridin-5-yl)benzo[b]thiophene-2-carboxamide]
Kd (JNK2 [6]): 27.8 ± 3.6 nM
Kd (JNK1 [3]): 5.9 ± 1.1 nM
Kd (JNK3): 12.7 ± 1.2 nM

CN(C)C(=O)c1cccc(NC(=O)c2cc3c(-c4cnc5[nH]ccc5c4)cccc3s2)c1 [CDD-2632, N-(3-(dimethylcarbamoyl)phenyl)-4-(1H-pyrrolo[2,3-b]pyridin-5-yl)benzo[b]thiophene-2-carboxamide]
Kd (JNK2 [6]): 3.5 ± 1.4 nM
Kd (JNK1 [3]): 4.91 ± 0.9 nM
Kd (JNK3): 5.82 ± 0.92 nM
solubility (Solubility): 0.6 µM (≈ 0.264 µg/mL)

CN(C)C(=O)c1cc(NC(=O)c2cc3c(-c4cnc5[nH]ccc5c4)cccc3s2)ccc1F [CDD-2730, N-(3-(dimethylcarbamoyl)-4-fluorophenyl)-4-(1H-pyrrolo[2,3-b]pyridin-5-yl)benzo[b]thiophene-2-carboxamide]
Kd (JNK2 [6]): 5.33 ± 0.52 nM
Kd (JNK1 [3]): 0.58 ± 0.08 nM
Kd (JNK3): 1.86 ± 0.18 nM
solubility (Solubility): 0.3 µM (≈ 0.138 µg/mL)

CN(C)C(=O)c1cc(NC(=O)c2cc3c(-c4cnc5[nH]ccc5c4)cccc3s2)ccc1C(F)(F)F [CDD-2732, N-(3-(dimethylcarbamoyl)-4-(trifluoromethyl)phenyl)-4-(1H-pyrrolo[2,3-b]pyridin-5-yl)benzo[b]thiophene-2-carboxamide]
Kd (JNK2 [6]): 67 ± 11 nM
Kd (JNK1 [3]): 14.3 ± 1.6 nM
Kd (JNK3): 24.3 ± 1.9 nM

CN(C)C(=O)c1cc(NC(=O)c2cc3c(-c4cnc5[nH]ccc5c4)cccc3s2)ccc1OC(F)(F)F [CDD-2857, N-(3-(dimethylcarbamoyl)-4-(trifluoromethoxy)phenyl)-4-(1H-pyrrolo[2,3-b]pyridin-5-yl)benzo[b]thiophene-2-carboxamide]
Kd (JNK2 [6]): 49.8 ± 9.7 nM
half-life [1]: 1.42 h
half-life [2]: 2.88 h
Kd (JNK1 [3]): 11.3 ± 3.4 nM
Kd (JNK3): 15.7 ± 1.2 nM
